This assay deals with human Kv1.3 (Homo sapiens, UniProt P22001). Put plainly: IonWorks automated patch clamp assay of inhibitory activity against Kv1.3. The format is cell-based. The settings on record: automated patch clamp method; CHO-K1 cells stably expressing human Kv1.3. On the procedure:
I. IonWorks Automated Patch Clamp Assay of Inhibitory Activity Against Kv1.3
The principle and method for Kv1.3 IonWorks assay can be found in Schroeder et al. [Schroeder et al. J Biomol Screen 2003, 8(1):50-64]
Inhibitory activity of the compounds against Kv1.3 was assessed using a CHO-K1 recombinant cell line stably expressing human Kv1.3 (Charles River, Calif.). The cells were cultured in an F-12K culture medium containing 5% calf serum (Invitrogen, Carlsbad. Calif.) in an incubator at 37° C. and under air humidity with 6% CO2. Prior to be fed in the IonWorks system, the adherent cells were treated with Versene at 37° C. for 6-7 min. After gently beating the culture flask, the cells were re-suspended in a PBS phosphate buffer, and then were centrifuged at 50×g for 4 min. After a short grinding, the cells were eventually re-suspended in an external recording solution at a density of approximately 1×10^6/mL.
The compounds were dissolved in DMSO to formulate a final assay concentration of 300× on the master plate. The final gradient assay concentrations were […], 0.096, 0.048, 0.24, 1.2, 6 and 30 μM. All 300× stock solutions of each compound in DMSO were transferred to a 384-well plate with 2 μl per well. The plates were sealed and stored at −80° C. until the day of assay.
On the day of assay, the plates were each thawed at room temperature. After centrifugation, 198 μl of the external recording solution (with the components of: 130 mM Na-Gluconate, 20 mM NaCl, 4 mM KCl, 1 mM MgCl2, 1.8 mM CaCl2, 5 mM Glucose and 10 mM HEPES, pH7.3) was added and mixed thoroughly. This step provided a 1:100 dilution for the compounds. After addition of cells to IonWorks, a further 1:3 dilution was carried out, resulting in a total dilution of 1:300. At least 8 wells were reserved as blank control on each of the plates, i.e., containing only 0.3% DMSO. In addition, at least 8 wells were reserved as positive control to detect the specificity to cell signals. Fluoxetine, a compound as the positive control, was assayed at its maximum blocking concentration (100 μm) and secondary maximum blocking concentration (10 μm). In addition, an internal recording solution used in the assay (with the components of: 100 mM K-gluconate, 40 mM KCl, 1 mM MgCl2, 1 mM EGTA and 10 mM HEPES, pH7.3) contained Amphotericin B at a final concentration of 200 μg/mL to gain current channels inside the cells. The osmotic pressure of the solution was adjusted with sucrose.
Experimental procedures were carried out following the protocols as set by IonWorks Quattro system (Molecular Devices, San Jose, CA). The current of human Kv1.3 was elicited to 0 millivolt (mV) for four times by a pulse lasting 1 second. A potential of −80 mV was maintained between pulses, for 5 seconds. First, a early voltage application program was started in the IonWorks Quattro system, and then the compounds were added and incubated for 600 seconds. Next, a late voltage application program was started until completion of all assays.
The maximum peak outward currents both before and after addition of the compounds as well as the average tail current elicited when the fourth pulse rose to 0 mV were measured. The inhibitory activity of the compounds against Kv1.3 can be calculated by dividing the measured current amplitude after addition of the compounds by the measured current amplitude before addition of the compounds.
All data was calibrated by a data filtration program of the IonWorks Quattro system. The filtration standard was that: seal quality >30 MΩ, decrease of seal resistance <50% and current amplitude >200 pA.

This note sets out measurements from patent US11993576B2, “N-benzyl-N-arylsulfonamide derivative and preparation and use thereof” (Hangzhou Yirui Pharmaceutical Technology Co., Ltd, priority 2019, dated 2024).

By IC50 is commonly meant the concentration that gives 50% inhibition. Lower therefore signals greater potency.

SMILES strings stand for the structures.

Sequence of human Kv1.3 (P22001 whole entry): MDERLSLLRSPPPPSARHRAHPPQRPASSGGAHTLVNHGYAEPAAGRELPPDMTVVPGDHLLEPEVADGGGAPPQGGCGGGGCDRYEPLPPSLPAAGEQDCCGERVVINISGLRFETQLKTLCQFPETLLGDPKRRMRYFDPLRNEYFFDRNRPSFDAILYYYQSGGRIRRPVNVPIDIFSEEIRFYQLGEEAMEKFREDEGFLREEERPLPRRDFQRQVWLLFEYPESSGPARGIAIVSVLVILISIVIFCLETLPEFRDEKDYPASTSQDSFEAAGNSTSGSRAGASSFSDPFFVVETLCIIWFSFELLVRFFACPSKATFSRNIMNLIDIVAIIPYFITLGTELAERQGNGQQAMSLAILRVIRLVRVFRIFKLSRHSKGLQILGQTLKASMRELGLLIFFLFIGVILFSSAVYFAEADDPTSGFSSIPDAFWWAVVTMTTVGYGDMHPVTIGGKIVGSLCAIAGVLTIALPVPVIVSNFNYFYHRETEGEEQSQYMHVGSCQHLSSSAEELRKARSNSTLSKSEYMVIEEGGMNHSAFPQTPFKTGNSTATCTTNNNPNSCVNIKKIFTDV

`CCCS(=O)(=O)N(Cc1ccncn1)c1ccc(N2CCN(C(=O)OCC)CC2)c(C#N)c1` [Compound 31, Ethyl 4-(2-cyano-4-(N-(pyrimidin-4-ylmethyl)propanesulfonamido)phenyl) piperazin-1-formate] gave an IC50 of 412 nM.

On to `CCCS(=O)(=O)N(Cc1ccccn1)c1ccc(N2CCN(C(=O)OCC)CC2)c(C#N)c1` [Compound 32, Ethyl 4-(2-cyano-4-(N-(pyridin-2-ylmethyl)propanesulfonamido)phenyl) piperazin-1-formate], for which the half-inhibitory concentration (IC50) turned out to be 165 nM.

Take `CCCS(=O)(=O)N(Cc1ccco1)c1ccc(N2CCN(C(=O)OCC)CC2)c(C#N)c1` [Compound 33, Ethyl 4-(2-cyano-4-(N-(furan-2-ylmethyl)propanesulfonamido)phenyl) piperazin-1-formate]: 839 nM corresponded to half-maximal inhibition (IC50).

`CCCS(=O)(=O)N(Cc1cscn1)c1ccc(N2CCN(C(=O)OCC)CC2)c(C#N)c1` [Compound 34, Ethyl 4-(2-cyano-4-(N-(thiazol-4-ylmethyl)propanesulfonamido)phenyl) piperazin-1-formate]: the IC50 amounted to 645 nM.

As to `CCCS(=O)(=O)N(Cc1cncn1C)c1ccc(N2CCN(C(=O)OCC)CC2)c(C#N)c1` [Compound 35, Ethyl 4-(2-cyano-4-(N-((1-methyl-1H-imidazol-5-yl)methyl)propanesulfonamido)phenyl)piperazin-1-formate], the IC50 was found to be 201 nM.

Turning to `CCCS(=O)(=O)N(Cc1ccnn1C)c1ccc(N2CCN(C(=O)OCC)CC2)c(C#N)c1` [Compound 36, Ethyl 4-(2-cyano-4-(N-((1-methyl-1H-pyrazol-5-yl)methyl)propanesulfon-amido)phenyl)piperazin-1-formate], the IC50 turned out to be 130 nM. Compared with the last molecule, the IC50 is about 1.5-fold lower.

With `CCCCS(=O)(=O)N(Cc1ccc(F)cc1)c1ccc(N2CCN(C(=O)N(C)C)CC2)c(C#N)c1` [Compound 38, 4-(2-cyano-4-(N-(4-fluorobenzyl)butanesulfonamido)phenyl)-N,N-dimethylpiperazin-1-formamide], half-maximal inhibition (IC50) was put at 101 nM.

As to `CC(C)CCS(=O)(=O)N(Cc1ccc(F)cc1)c1ccc(N2CCN(C(=O)N(C)C)CC2)c(C#N)c1` [Compound 39, 4-(2-cyano-4-((N-(4-fluorobenzyl)-3-methylbutyl)sulfonamido)phenyl)-N,N-dimethylpiperazin-1-formamide], half-maximal inhibition (IC50) was put at 155 nM.

As for `CN(C)C(=O)N1CCN(c2ccc(N(Cc3ccc(F)cc3)S(=O)(=O)CC(C)(C)C)cc2C#N)CC1` [Compound 40, 4-(2-cyano-4-((N-(4-fluorobenzyl)-2,2-dimethylpropyl)sulfonamido)phenyl)-N,N-dimethylpiperazin-1-formamide], the IC50 is 206 nM.

`CCCS(=O)(=O)N(Cc1ccncc1)c1ccc(N2CCN(C(=O)N(C)C)CC2)c(C#N)c1` [Compound 41, 4-(2-cyano-4-(N-(pyridin-4-ylmethyl)propanesulfonamido)phenyl)-N,N-dimethylpiperazin-1-formamide]: the IC50 amounted to 131 nM.

`CCCS(=O)(=O)N(Cc1ccncn1)c1ccc(N2CCN(C(=O)N(C)C)CC2)c(C#N)c1` [Compound 42, 4-(2-cyano-4-(N-(pyrimidin-4-ylmethyl)propanesulfonamido)phenyl)-N,N-dimethylpiperazin-1-formamide] came in with an IC50 of 167 nM.

Molecule `CCS(=O)(=O)N(Cc1ccc(F)cc1)c1ccc(N2CCN(S(=O)(=O)N(C)C)CC2)c(C#N)c1` [Compound 43, 4-(2-cyano-4-(N-(4-fluorobenzyl)ethanesulfonamido)phenyl)-N,N-dimethylpiperazin-1-sulfonamide] yielded an IC50 of 124 nM.

As to `CCCS(=O)(=O)N(Cc1ccc(OC)cc1)c1ccc(N2CCN(S(=O)(=O)N(C)C)CC2)c(C#N)c1` [Compound 45, 4-(2-cyano-4-(N-(4-methoxybenzyl)propanesulfonamido)phenyl)-N,N-dimethylpiperazin-1-sulfonamide], 224 nM corresponded to half-maximal inhibition (IC50).

In turn, `CN(C)S(=O)(=O)N1CCN(c2ccc(N(Cc3ccnn3C)S(=O)(=O)c3ccc(F)cc3)cc2C#N)CC1` [Compound 46, 4-(2-cyano-4-((4-fluoro-N-((1-methyl-1H-pyrazol-5-yl)methyl)phenyl)sulfonamido)phenyl)-N,N-dimethylpiperazin-1-sulfonamide] returned an IC50 of 356 nM.

The molecule `CN(C)S(=O)(=O)N1CCN(c2ccc(N(Cc3ccc(F)cc3F)S(=O)(=O)CC3CC3)cc2C#N)CC1` [Compound 47, 4-(2-cyano-4-((1-cyclopropyl-N-(2,4-difluorobenzyl)methyl)sulfonamido)phenyl)-N,N-dimethylpiperazin-1-sulfonamide] yielded an IC50 of 124 nM.

On to `CN(C)S(=O)(=O)N1CCN(c2ccc(N(Cc3ccc(F)cc3)S(=O)(=O)c3cccnc3)cc2C#N)CC1` [Compound 48, 4-(2-cyano-4-(-N-(4-fuorophenyl)pyridin-3-sulfonamido)phenyl)-N,N-dimethylpiperazin-1-sulfonamide], for which the IC50 worked out at 145 nM.

Consider `CCCS(=O)(=O)N(Cc1ccc(F)cc1)c1ccc(N2CCN(C(=O)OCC)CC2)c(C(F)(F)F)c1` [Compound 49], for which the IC50 amounted to 160 nM.

On to `CCCS(=O)(=O)N(Cc1ccc(F)cc1)c1ccc(OC2CCNCC2)c(C#N)c1` [Compound 50, N-(3-cyano-4-(piperidin-4-yloxy)phenyl)-N-(4-fluorobenzyl) propanesulfonamide], for which the IC50 is 370 nM.

Consider `CCCS(=O)(=O)N(Cc1ccc(F)cc1)c1ccc(SC2CCNCC2)c(C#N)c1` [Compound 51, N-(3-cyano-4-(piperidin-4-ylthio)phenyl)-N-(4-fluorobenzyl) propanesulfonamide], for which the IC50 was 412 nM.

In the case of `CCCS(=O)(=O)N(Cc1ccc(F)cc1)c1ccc(NC2CCNCC2)c(C#N)c1` [Compound 52, N-(3-cyano-4-(piperidin-4-ylamino)phenyl)-N-(4-fluorobenzyl) propanesulfonamide], the IC50 came to 139 nM.

For `CCCS(=O)(=O)N(Cc1ccc(F)cc1)c1ccc(OC2CCN(C(C)=O)CC2)c(C#N)c1` [Compound 53, N-(4-((1-acetylpiperidin-4-yl)oxy)-3-cyanophenyl)-N-(4-fluorobenzyl) propanesulfonamide], the IC50 turned out to be 291 nM. Against the preceding molecule, the IC50 is about 2.1-fold higher.

On to `CCCS(=O)(=O)N(Cc1ccc(F)cc1)c1ccc(SC2CCN(C(C)=O)CC2)c(C#N)c1` [Compound 54, N-(4-((1-acetylpiperidin-4-yl)thio)-3-cyanophenyl)-N-(4-fluorobenzyl) propanesulfonamide], for which the IC50 was found to be 389 nM.

In the case of `CCCS(=O)(=O)N(Cc1ccc(F)cc1)c1ccc(NC2CCN(C(C)=O)CC2)c(C#N)c1` [Compound 55, N-(4-((1-acetylpiperidin-4-yl)amino)-3-cyanophenyl)-N-(4-fluorobenzyl)propanesulfonamide], the IC50 came to 160 nM. This IC50 is about 2.4-fold lower than that of the molecule before.

The molecule `CCCS(=O)(=O)N(Cc1ccc(F)cc1)c1ccc(OC2CCN(C=O)CC2)c(C#N)c1` [Compound 56, N-(4-((1-formylpiperidin-4-yl)oxy)-3-cyanophenyl)-N-(4-fluorobenzyl) propanesulfonamide] registered an IC50 of 250 nM.

In the case of `CCCS(=O)(=O)N(Cc1ccc(F)cc1)c1ccc(SC2CCN(C=O)CC2)c(C#N)c1` [Compound 57, N-(4-((1-formylpiperidin-4-yl)thio)-3-cyanophenyl)-N-(4-fluorobenzyl) propanesulfonamide], half-maximal inhibition (IC50) was put at 254 nM.

`CCCS(=O)(=O)N(Cc1ccc(F)cc1)c1ccc(NC2CCN(C=O)CC2)c(C#N)c1` [Compound 58, N-(4-((1-formylpiperidin-4-yl)amino)-3-cyanophenyl)-N-(4-fluoro-benzyl)propanesulfonamide] returned an IC50 of 279 nM. This IC50 and that of the molecule before are within 1.5-fold of each other.

In turn, `CC(=O)N1CCC(Oc2ccc(N(Cc3ccccc3)S(=O)(=O)c3ccccc3)cc2C#N)CC1` [Compound 59, N-(4-((1-acetylpiperidin-4-yl)oxy)-3-cyanophenyl)-N-benzylbenzenesulfonamide] showed an IC50 of 441 nM.
